One test concerns PC3 (prostate). The test is described as follows: In vitro cytotoxic activity (MTT) assay, PC3. The note with it: Homo sapiens, Prostate cell, cells exposed for 96 hours, read-out: Cytotoxicity activity IC50 (50% inhibition of cell proliferation). It counts as cell-based. How it is done: (§1) Compounds 1-16 were screened for their in vitro cytotoxic activity utilizing a 3-(4,5-dimethyl-thiazol-2-yl)-2,5-diphenyltetrazolium bromide (MTT) assay against selected cancer human cell lines consisting of PC3 (prostate), HCT116 (colon), A375 (melanoma), H1299 (lung), MIAPaCa-2 (pancreas), HL60 (leukemia), MCF7 (breast), MDA-MB-231 (breast) (T. Mosmann, J. Immunol. Meth., 1983, 65, 55-63). The cells were cultured at 37° C. in RMPI1640 medium supplemented with 10% fetal bovine serum, 50 IU/mL penicillin, and […] streptomycin in a 5% CO2 incubator. All cells were sub-cultured 3 times/week by trypsinization. Viable cells were seeded and allowed to adhere for 12 hours before a test drug was added in 96-well plates at an initial density of 1.0×10^5 cells/mL. Tumor cell lines were separately exposed to various concentrations of the tested compounds followed by incubation at a temperature of 37° C. during 96 hours inside a medium of fresh RMPI 1640. Cells were subsequently incubated at 37° C. using MTT at 0.5 mg/mL during 4 hours. After removal of supernatant, formazan crystals were dissolved in isopropanol and the optical density was measured at 570 nm. CX-4945 was used as a positive control.

The subject of a further test is HCT116 (colon). The test is described as follows: In vitro cytotoxic activity (MTT) assay, HCT116. Format: cell-based. The note with it: Homo sapiens, HCT-116, cells exposed for 96 hours, read-out: Cytotoxicity activity IC50 (50% inhibition of cell proliferation). The procedure:
as §1

A further test relates to A375 (melanoma). The test is described as follows: In vitro cytotoxic activity (MTT) assay, A375. Format: cell-based. The note with it: Homo sapiens, A-375, cells exposed for 96 hours, read-out: Cytotoxicity activity IC50 (50% inhibition of cell proliferation). The procedure:
as §1

Another test concerns H1299 (lung). The test is described as follows: In vitro cytotoxic activity (MTT) assay, H1299. It counts as cell-based. The note with it: Homo sapiens, NCI-H1299, cells exposed for 96 hours, read-out: Cytotoxicity activity IC50 (50% inhibition of cell proliferation). The procedure: as §1
In another test the test system is MIAPaCa-2 (pancreas). The test is described as follows: In vitro cytotoxic activity (MTT) assay, MIAPaCa-2. Format: cell-based. The note with it: Homo sapiens, MIA PaCa-2, cells exposed for 96 hours, read-out: Cytotoxicity activity IC50 (50% inhibition of cell proliferation). How it is done:
as §1

The next test relates to HL60 (leukemia). Description: In vitro cytotoxic activity (MTT) assay, HL60. Format: cell-based. The note with it: Homo sapiens, HL-60, cells exposed for 96 hours, read-out: Cytotoxicity activity IC50 (50% inhibition of cell proliferation). The procedure:
as §1

The next test relates to MCF7 (breast). The test is described as follows: In vitro cytotoxic activity (MTT) assay, MCF7. It counts as cell-based. The note with it: Homo sapiens, cells exposed for 96 hours, read-out: Cytotoxicity activity IC50 (50% inhibition of cell proliferation). How it is done:
as §1

In another test the test system is MDA-MB-231 (breast). Description: In vitro cytotoxic activity (MTT) assay, MDA-MB-231. It counts as cell-based. The note with it: Homo sapiens, cells exposed for 96 hours, read-out: Cytotoxicity activity IC50 (50% inhibition of cell proliferation). The procedure:
as §1

For another test, the target named is T1, recombinant human CK2 (Homo sapiens, UniProt P68400).
T1 construct: purchased Millipore
T1 sequence (P68400 whole entry): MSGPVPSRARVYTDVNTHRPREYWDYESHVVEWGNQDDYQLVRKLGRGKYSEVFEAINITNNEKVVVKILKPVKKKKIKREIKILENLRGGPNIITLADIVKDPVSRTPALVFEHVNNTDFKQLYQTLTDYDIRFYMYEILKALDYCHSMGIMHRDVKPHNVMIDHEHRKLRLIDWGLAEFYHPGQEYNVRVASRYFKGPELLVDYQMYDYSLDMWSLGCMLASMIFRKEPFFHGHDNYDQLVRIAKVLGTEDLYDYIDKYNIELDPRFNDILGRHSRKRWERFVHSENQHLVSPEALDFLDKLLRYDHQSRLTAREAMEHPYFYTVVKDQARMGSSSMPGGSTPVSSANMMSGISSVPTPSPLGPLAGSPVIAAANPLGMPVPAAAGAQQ
T1 sequence (P67870 whole entry partner): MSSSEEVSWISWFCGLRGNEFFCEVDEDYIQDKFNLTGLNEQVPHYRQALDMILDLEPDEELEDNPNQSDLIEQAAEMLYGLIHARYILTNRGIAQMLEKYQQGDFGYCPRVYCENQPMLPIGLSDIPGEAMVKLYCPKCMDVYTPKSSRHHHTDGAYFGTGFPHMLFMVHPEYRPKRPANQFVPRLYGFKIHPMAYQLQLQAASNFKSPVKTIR
The test is described as follows: CK2 Kinase Assay (33P-ATP, filter plate). It counts as biochemical. The note with it: final ATP concentration 15 μM, 10 min at 30° C.; read-out: protein kinase CK2 activity IC50. The procedure:
CK2 Kinase Assay was conducted using the protocol as described in Pierre F. et al; J. Med. Chem. 2011, 54, 635-654. The tested compounds in aqueous solution were added at a volume of 10 μL to a reaction mixture comprising 10 μL of assay dilution buffer (ADB; 20 mM MOPS, pH 7.2, 25 mM β-glycerol phosphate, 5 mM EGTA, 1 mM sodium orthovanadate, and 1 mM dithiothreitol), 10 μL of substrate peptide (RRRDDDSDDD (SEQ 1), dissolved in ADB at a concentration of 1 mM), 10 μL of recombinant human CK2 (RROP-holoenzyme, 25 ng dissolved in ADB; Millipore). Reactions were initiated by the addition of 10 μL of ATP solution (90% 75 mMMgCl2, 75 μM ATP (final ATP concentration: 15 μM) dissolved in ADB; 10% [γ-33P] ATP (stock 1mCi/100 μL; 3000 Ci/mmol (Perkin-Elmer) and maintained for 10 min at 30° C. The reactions were quenched with 100 μL of 0.75% phosphoric acid and then transferred to and filtered through a phosphor cellulose filter plate (Millipore). After washing each well five times with 0.75% phosphoric acid, the plate was dried under vacuum for 5 min and, following the addition of 15 μL of scintillation fluid to each well, the residual radioactivity was measured using a Wallac luminescence counter. The IC50 values were derived from eight concentrations of test inhibitors.

Take `O=C(O)c1nnc2c3cnccc3nc(Nc3cccc(Cl)c3)n12` [Compound 1, 5-((3-chlorophenyl)amino)pyrido[3,4-e][1,2,4]triazolo[4,3-c]pyrimidine-3-carboxylic acid]: the IC50 in the test with PC3 (prostate) was 1500 nM; in the test on HCT116 (colon), 2800 nM; in the test on A375 (melanoma), 5.4 µM; with H1299 (lung) it was 3.1 µM; with MIAPaCa-2 (pancreas), 1300 nM; in the test on HL60 (leukemia) it was 5.8 µM. In addition, the IC50 in the test on MCF7 (breast) is 4.9 µM; with MDA-MB-231 (breast), 4.5 µM; at recombinant human CK2, 32 nM.

The values are drawn from patent US12173001B1, “Pyrido[3,4-e][1,2,4]triazolo[4,3-c]pyrimidines as CK2 inhibitors” (King Faisal University, priority 2024, dated 2024).
